What was measured:
[1] = tested on: anesthetized thromboxane A2 challenged PAH-minipig; experiment: Haemodynamics in the anesthetized thromboxane challenged minipig (PAH minipig), inhaled nebulized solution: lung selectivity and duration of action; format: in vivo, Göttingen Minipigs; conditions: for PAP % changes vs prevalue: mean
Description: Healthy Göttingen Minipigs® Ellegaard (Ellegaard, Denmark) of both sexes and having a weight of 2-6 kg were used. The animals were sedated by i.m. administration of about 25 mg/kg ketamine and about 10 mg/kg azaperone. Anaesthesia was initiated by i.v. administration of about 2 mg/kg ketamine and about 0.3 mg/kg midazolam. Maintenance of anaesthesia was by i.v. administration of about 7.5-30 mg/kg/h ketamine and about 1-4 mg/kg/h midazolam (rate of infusion 1-4 ml/kg/h) and about 150 μg/kg/h pancuronium bromide (for example Pancuronium-Actavis). After intubation, the animals were ventilated by the ventilator at a constant respiratory volume (10-12 ml/kg, 35 breaths/min; Avea®, Viasys Healthcare, USA, or Engström Carestation, GE Healthcare, Freiburg, Germany) such that an end-tidal CO2 concentration of about 5% was achieved. Ventilation was performed with room air, enriched with about 40% oxygen (normoxia). For the measurement of the haemodynamic parameters such as pulmonary arterial pressure (PAP), blood pressure (BP) and heart rate (HR), catheters were inserted into the carotid artery to measure the blood pressure, and a Swan-Ganz® catheter was introduced in a flow-directed manner via the jugular vein into the pulmonary artery. The haemodynamic signals were recorded and evaluated by means of pressure transducers (Combitransducer, B. Braun, Melsungen, Germany)/amplifiers and Ponemah® as data acquisition software.
After the instruments have been placed into the animals, continuous infusion of a thromboxane A2 analog was initiated to increase the pulmonary arterial pressure. About 0.3-0.75 μg/kg/min of 9,11-didesoxy-9α,11α-epoxymethanoprostaglandine F2α (U-44069; Sigma, cat. no. D0400, or Cayman Chemical Company, cat. no. 16440), dissolved in physiological saline, were infused to achieve an increase of the mean pulmonary arterial pressure to values of over 25 mmHg. 30 minutes after the start of the infusion, a plateau was reached, and the experiment was started.
The test substances were administered as i.v. infusion or by inhalation. For the preparation of the solution for inhalation, the following procedure was adopted: For an animal having a weight of 4 kg, to prepare the stock solution (300 μg/kg), 1.2 mg of the test compound were weighed out and dissolved in a total volume of 3 ml (1% DMSO, 99% 0.2% strength citric acid solution, 1 n aqueous sodium hydroxide solution to adjust the pH to 8). The solution was then diluted to the concentration employed using 0.2% strength citric acid which had been adjusted to pH 8 beforehand with aqueous sodium hydroxide solution. In each test, 3 ml of the solution of test compound per 4 kg animal were nebulized in the inhalation arm of the respiratory circuit using the Aeroneb® Pro nebulizer system. The mean nebulization time was about 7 min from the start of the nebulization.
With respect to a prediction of the duration of action for human studies comparative example 11 was compared in the PAH minipig model after inhaled application to Ventavis® (=Iloprost, 10 μg/kg nominal dose), which we used as a clinical reference. […] Therefore, the duration of action is more than 6 times longer compared to Ventavis in this preclinical animal model.

plasma proteins [2] = experiment: Protein binding via Transil assay, human plasma; format: in vitro ADME; conditions: all tested species where comparative results are given
Description: The distribution of a test substance between Transil® (phosphatidylcholine lipid bilayers immobilized on silica beads) and plasma is a characteristic feature of any pharmaceutical compound and is dependent on its extent of binding to plasma proteins. By comparing the distribution between Transil® and buffer with the distribution between Transil® and plasma of any species of interest, the unbound fraction in the plasma of the respective animal species can be calculated in vitro. The respective plasma and buffer concentrations were determined via a radioactivity analysis. A detailed description of the method and its validation was published by Schuhmacher et al. (2).

[3] = tested on: patients with pulmonary hypertension; conditions: clinical studies; cited from earlier work
plasma proteins [4] = experiment: Protein binding via ultrafiltration assay; format: in vitro ADME
Description: For this assay, filter membranes of 30 kDa pore size were used to separate plasma and protein free ultrafiltrate. The driving force for filtration was applied by centrifugation. Prior to protein binding studies, the adsorption (recovery) of the test compound to the ultra-filtration device and the ability of the test compound to pass the filter membrane was checked by filtration of the test compound dissolved in buffer at four concentrations. Sufficient stability of the test compound and an almost complete recovery (≥90% of the actual amount of compound used for the experiment) was a prerequisite for the use of the ultrafiltration method. The amount of organic solvent added to the plasma may not exceed 2% of the total incubation volume. Blood samples were collected in heparinized tubes either pooled (all species except human and monkey) or individually (human and monkey) and were used within 24 h for incubation experiments in blood. Plasma was prepared by centrifugation of the heparinized blood samples. Plasma was stored at −15° C. until use. Plasma stability, Compound recovery, unspecific binding to the membrane and the test device as well as partitioning between blood cells and plasma were controlled. The substance-associated radioactivity was determined by liquid scintillation counting. With this analytical method, it is not possible to distinguish between unchanged substance and radioactive metabolites. For details of the radioanalytical methods and the work up of the samples see Goeller et al. (3). A description of the ultrafiltration method in general was published by Zhang et al. In 2012 (4).

[5] = Particle size distribution by laser diffraction (D.4); format: physicochemical; conditions: after micronization, monohydrate II as starting material, 50 mm spiral jet mill; dry measurement 4 bar
Description: All measurements cited in the above tables were obtained by laser diffraction with dry dispersion using compressed air. Measuring in aqueous suspension with surfactants may lead to smaller particle sizes (×90 up to 1 μm smaller).
The particle size analysis data are usually reported as cumulative undersized distribution by volume. The symbol x is used to denote the particle size, which is defined as diameter of a volume equivalent sphere. Most common characteristic values are calculated from the particle size distribution by interpolation. Frequently used are the particle sizes at the undersize values of 10%, 50% and 90% of the volume distribution, denoted as ×10, ×50 and ×90. ×50 is also known as median particle size. The symbol dis widely used to designate the particle size, thus the symbol x may be replaced by the symbol d.

With `CC#CCC(C)[C@H](O)/C=C/[C@@H]1[C@H]2C/C(=C/CCCC(=O)O)C[C@H]2C[C@H]1O` (stereo partly drawn) [Ventavis ®] the “PAP % changes vs prevalue” ([1]; inhaled, 10 μg/kg nominal dose, time 0 min) was 0%, the “PAP % changes vs prevalue” ([1]; inhaled, 10 μg/kg nominal dose, time 10 min) was −30.3% and the “PAP % changes vs prevalue” ([1]; inhaled, 10 μg/kg nominal dose, time 20 min) was −20.7%. The “PAP % changes vs prevalue” ([1]; inhaled, 10 μg/kg nominal dose, time 30 min) was −6.9%, the “PAP % changes vs prevalue” ([1]; inhaled, 10 μg/kg nominal dose, time 40 min) was 1.7% and the “PAP % changes vs prevalue” ([1]; inhaled, 10 μg/kg nominal dose, time 50 min) was 4.9%.

With `O=C(O)c1ccc(CCN(CCc2ccccc2OCc2ccc(-c3ccc(C(F)(F)F)cc3)cc2Cl)[C@H]2CCCc3nc(C(=O)O)ccc32)cc1` [Example 1, (5S)—{[2-(4-Carboxyphenyl)ethyl][2-(2-{[3-chloro-4′-(trifluoromethyl)biphenyl-4-yl]methoxy}phenyl)-ethyl]amino}-5,6,7,8-tetrahydroquinoline-2-carboxylic Acid Monohydrate II] the “free fractions (comparison)” value (plasma proteins [2]) was “lowest free fractions”.

For `CC#CCC(C)[C@H](O)/C=C/[C@@H]1[C@H]2C/C(=C/CCCC(=O)O)C[C@H]2C[C@H]1O` (stereo partly drawn) [Ventavis, reference compound], the “maximal duration of action” value ([1]; 10 μg/kg nominal dose, inhaled) is listed as “about 40 min” and the “duration of action on haemodynamics (PVR)” value [3] is listed as “about 60 min”.

For `COC(=O)N(C)c1c(N)nc(-c2nn(Cc3ccccc3F)c3ncccc23)nc1N` [Comparative example 2, Methyl-4,6-diamino-2-[1-(2-fluorobenzyl)-1H-pyrazolo[3,4-b]pyridine-3-yl]-5-pyrimidinyl(methyl)carbamate], the “Fraction unbound (%)” value (plasma proteins [4]; Dog Beagle plasma) was 17.1%, the “Fraction unbound (%)” value (plasma proteins [4]; Human (male) plasma) was 4.97% and the “Fraction unbound (%)” value (plasma proteins [4]; Rat Wistar plasma) was 15.7%.

With `O=C(O)c1ccc(CCN(CCc2cc(F)ccc2OCc2ccc(-c3nc4cc(Cl)ccc4o3)cc2)C2CCCc3nc(C(=O)O)ccc32)cc1` (single isomer, unassigned) [compound 4, 5-{[2-(4-Carboxyphenyl)ethyl][2-(2-{[4-(5-chloro-1,3-benzoxazol-2-yl)benzyl]oxy}-5-fluorophenyl)-ethyl]amino}-5,6,7,8-tetrahydroquinoline-2-carboxylic Acid, reference compound] the duration of action ([1]; minipig model, inhaled) was “sufficient duration of action”.

With `CCOC(=O)c1ccc2c(n1)CCCC2NCCc1ccccc1OCc1ccc(-c2ccc(C(F)(F)F)cc2)cc1Cl` (single isomer, unassigned) [Example 8a, Ethyl 5-{[2-(2-{[3-chloro-4′-(trifluoromethyl)biphenyl-4-yl]methoxy}phenyl)ethyl]amino}-5,6,7,8-tetrahydroquinoline-2-carboxylate] the “PSD X10” value [5] was “X10: 0.2 μm,”, the “PSD X50” value [5] was “X50: 1.7 μm,” and the “PSD X90” value [5] was “X90: 4.2 μm”.

In the case of `O=C(O)CCCCN(CCc1cc(F)ccc1OCc1ccc(-c2nc3cc(Cl)ccc3o2)cc1)C1CCCc2nc(C(=O)O)ccc21` (single isomer, unassigned) [compound 3, (5)-{(4-carboxybutyl)[2-(2-{[4-(5-chloro-1,3-benzoxazol-2-yl)benzyl]oxy}-5-fluorophenyl)ethyl]amino}-5,6,7,8-tetrahydroquinoline-2-carboxylic Acid, reference compound], the “effect on PAP completely resolved after” value ([1]; inhaled application) is reported as 120 min and the “time of maximal effect on PAP after inhaled application” value ([1]; nebulized solution) is reported as 30 min.

From US20250281480A1, “PHARMACEUTICAL DRY POWDER INHALATION FORMULATION” (Bayer Aktiengesellschaft, priority 2021, published 2025)
